Values joined by “and” are separate entries in the source; they are usually repeats but may differ in a detail not shown here. Equal entries are not always repeated.
Legend:
[1] = system: U87-MG cells; experiment: Cell viability with TMZ and DDI199 alone or combined; format: cell-based, human; details: 72 h
Description: (§1) MTT assay was used to study cell viability. For that, cells were seeded at a density of 1.5 × 10^3 cells/well in 96-well plates, incubated overnight and then treated with increasing concentrations of DDI199. After 72 h of treatment, MTT absorbance was measured at 570 nm. GraphPad Prism software was used to analyze results and calculate IC50 values.

[2] = system: patient-derived GSCs; experiment: MTT cell viability, summary for patient-derived GSCs; format: cell-based; details: Homo sapiens, 72 h, summary statement
Description: as §1

[3] = biological target: HDAC1 (Homo sapiens, UniProt Q13547); experiment: HDAC1 enzyme inhibition; format: biochemical; details: read-out: HDAC inhibition IC50 HDAC1
Description: The inhibitory capacity of DDI199 on HDACs was studied as previously described. The capacity of DDI199 to inhibit MAOs was studied by mimicking the reaction occurring in cells. Briefly, inhibitor solution containing 10 µM of DDI199 or reference compound was incubated for 30 minutes at 37 °C together with the enzyme solution, containing either recombinant hMAO-A (Sigma-Aldrich) at 0.5 U/mL or hMAO-B (Sigma-Aldrich) at 1.5 U/mL. 200 U/mL horseradish peroxidase (Sigma-Aldrich), 20 mM Ampliflu Red (Sigma-Aldrich) and 100 mM tyramine hydrochloride (Sigma-Aldrich) were then added and absorbance at 570 nm was measured every 5 minutes for 30 minutes. Percentage of inhibition was estimated from these values.

HDAC1, sequence (Q13547 whole entry): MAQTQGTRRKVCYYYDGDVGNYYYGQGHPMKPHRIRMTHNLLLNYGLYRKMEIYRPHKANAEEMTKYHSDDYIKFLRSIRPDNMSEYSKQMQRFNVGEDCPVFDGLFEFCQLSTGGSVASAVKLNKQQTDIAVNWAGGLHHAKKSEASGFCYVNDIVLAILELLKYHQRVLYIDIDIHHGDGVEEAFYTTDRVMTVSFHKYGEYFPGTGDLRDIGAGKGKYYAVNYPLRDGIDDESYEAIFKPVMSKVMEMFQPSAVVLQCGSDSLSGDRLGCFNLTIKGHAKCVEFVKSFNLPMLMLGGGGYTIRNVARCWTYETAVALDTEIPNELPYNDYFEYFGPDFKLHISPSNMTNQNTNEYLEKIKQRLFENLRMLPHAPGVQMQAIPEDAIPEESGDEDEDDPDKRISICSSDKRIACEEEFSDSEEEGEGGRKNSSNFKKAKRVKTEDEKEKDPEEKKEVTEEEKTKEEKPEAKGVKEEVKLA

## C#CCN(Cc1cc2cc(OCCCN3CCCCC3)ccc2n1S(=O)(=O)c1ccccc1)C(=O)CCCCCCC(=O)NO [DDI199]
[1]; 0.5 µM DDI199 + 250 µM TMZ
  Cytotoxicity in combination with TMZ: over 70%
[1]; 250 µM TMZ or 0.5 µM DDI199 alone
  Cell viability, single agent: reduced cell viability
[2]
  IC50: 5000 to 13000 nM
[3]
  IC50: 377 nM and 370 nM

— article PMC11971462, “Generation and validation of a novel multitarget small molecule in glioblastoma” (Cell Death & Disease, 2025)
